Test results from US20240066043A1, “PHARMACEUTICAL CO[…] IMPROVED DISSOLUTION AND RAPID ONSET BY TARGETED STOMACH AND MUCOSAL RELEASE” (Xpira Pharmaceuticals Inc., priority 2022, published 2024).
Read-outs that look alike come from different tables or passages of the source.

Experiments:
[1] = cited from earlier work
[2] = Particle size analysis from SEM micrographs (circle equivalent diameter); type: physicochemical; conditions: SEM micrograph FIG. 4B, unformulated psilocybin
[3] = molecular target: T1, neocortical serotonin 5-HT2A receptors (Homo sapiens, UniProt P28223); conditions: 25 mg oral dose (Madsen et al., 2019); cited from earlier work
T1 construct: host or cells: neocortex in vivo

[4] = cited from earlier work; remark: listed apart in the source
[5] = cited from earlier work; remark: listed apart in the source
[6] = Flowability measurements (bulk density, tapped density, Hausner ratio, compressibility index)
[7] = cited from earlier work; remark: listed apart in the source
[8] = oral 0.224 mg/kg psilocybin (10 to 20 mg) (Hasler et al., 1997)
[9] = oral psilocybin (Brown et al., 2017)

T1 sequence (P28223 whole entry): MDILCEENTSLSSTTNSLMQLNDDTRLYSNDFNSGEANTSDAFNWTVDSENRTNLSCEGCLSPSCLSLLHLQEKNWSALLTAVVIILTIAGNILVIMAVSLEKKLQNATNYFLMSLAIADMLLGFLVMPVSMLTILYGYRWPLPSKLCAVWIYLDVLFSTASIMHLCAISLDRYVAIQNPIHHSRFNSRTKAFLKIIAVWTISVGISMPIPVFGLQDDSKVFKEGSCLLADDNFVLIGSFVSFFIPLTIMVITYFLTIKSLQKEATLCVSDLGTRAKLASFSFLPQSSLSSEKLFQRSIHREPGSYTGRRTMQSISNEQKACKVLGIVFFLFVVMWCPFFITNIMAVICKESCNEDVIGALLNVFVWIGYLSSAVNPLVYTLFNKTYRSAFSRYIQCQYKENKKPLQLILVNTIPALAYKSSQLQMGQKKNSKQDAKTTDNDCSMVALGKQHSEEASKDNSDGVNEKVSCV

SMILES: CN(C)CCc1c[nH]c2cccc(OP(=O)(O)O)c12 [Psilocybin, 3[2-(dimethylamino)ethyl]-1H-indol-4-yl] dihydrogen phosphate]
- solubility ([1]; boiling methanol): 120 parts
- solubility ([1]; boiling water): 20 parts
- stability ([1]; dark storage at controlled room temperature): stable over extended periods
- crystal size [2]: ≤ 30 μm
- occupancy of neocortical serotonin 5-HT2A receptors [3]: near-maximal occupancy
- pharmacokinetics of psilocybin (as psilocin), dose linearity ([4]; dose range 0.3-0.6 mg/kg (Brown et al., 2017; Hasler et al., 2002)): linear
- estimated dose-normalized bioavailability of psilocybin ([4]; oral 0.224 mg/kg psilocybin, N=3 (Hasler et al., 1997)): 52.7±20%
- bioavailability ([4]; oral psilocybin): ~50%
- peak of psychoactive effects ([5]; after a dose): about two hours
- onset of noticeable psychoactive effects ([5]; after an oral dose): within one hour
- loss of psychoactive effects ([5]; after the dose): around six hours
- Bulk density ([6]; USP41-NF36 616): 0.19 g/mL
- Tapped density ([6]; USP41-NF36 616): 0.45 g/mL
- Compressibility index ([6]; USP41-NF36 1174): 58%
- Hausner ratio ([6]; tap density divided by bulk density, USP41-NF36 1174): 2.36

SMILES: CN(C)CCc1c[nH]c2cccc(O)c12 [psilocin]
- time to maximum plasma levels ([7]; oral, rats (Chen et al., 2011)): approximately 90 minutes
- total volume of psilocin absorbed from the digestive tract ([7]; psilocybin administered orally to rats (Kalberer et al., 1962)): approximately 50%
- time until psilocin detectable in plasma ([4]; after administration of the parent compound psilocybin): ≤ 20 min
- time until psilocin appears in plasma ([4]; after oral administration): ≤ 15 min
- psilocin half-life ([4]; following oral administration of psilocybin (Brown et al., 2017)): approximately 3±1.1 hours
- half-life of psilocin in blood ([4]; in vivo): 2 to 3 h
- average blood concentration of the active metabolite psilocin [4, 8]: 8.2 ± 2.8 ng/mL
- time of average blood concentration of psilocin [4, 8]: 105 ± 37 min
- time of peak psilocin levels [4, 9]: approximately 80 minutes
- time psilocin is detectable after administration [4, 9]: up to 24 hours
- share of overall clearance of psilocin through renal excretion ([4]; urine over 24 hours after a single dose (Hasler et al., 2002)): less than 4%
